Test [1] concerns the target GDP-bound NRAS wild-type protein (Homo sapiens, UniProt P01111). Kind of test: Binding to NRAS by surface plasmon resonance (SPR), KD and KD ratio to KRAS. The settings on record: ratio of KD value for GDP-bound NRAS wild-type protein to KD value for KRAS (SPR). An outline of the steps:
(§1)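 Measured at 30°C: SPR with GDP-loaded, E. coli-expressed biotin-Avi RAS captured (~100–300 RU), ascending 75 s compound injections, HBS pH 7.4 with GDP, MgCl2, 4% DMSO. KD from 1:1 fit.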

The target of the next test is HRAS wild-type protein (Homo sapiens, UniProt P01112). Kind of test: Binding to HRAS by surface plasmon resonance (SPR), KD and KD ratio to KRAS. The following applies: ratio of KD value for HRAS wild-type protein to KD value for KRAS (SPR). An outline of the steps:
as §1

Test [2] deals with human lung cancer strain NCI-H441. The class given is cell-based. An outline of the steps:
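Signal came from […] measured per well once the reagent was added. Beforehand, cells were cultured at 37°C and 5% carbon dioxide on a compound series serially diluted in dimethyl sulfoxide.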

Sequence of GDP-bound NRAS wild-type protein (P01111 whole entry): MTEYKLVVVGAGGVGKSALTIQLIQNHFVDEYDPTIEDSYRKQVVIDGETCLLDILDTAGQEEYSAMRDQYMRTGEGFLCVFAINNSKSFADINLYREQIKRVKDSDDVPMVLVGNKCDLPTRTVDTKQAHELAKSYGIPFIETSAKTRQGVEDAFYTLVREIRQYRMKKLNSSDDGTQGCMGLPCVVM
Sequence of HRAS wild-type protein (P01112 whole entry): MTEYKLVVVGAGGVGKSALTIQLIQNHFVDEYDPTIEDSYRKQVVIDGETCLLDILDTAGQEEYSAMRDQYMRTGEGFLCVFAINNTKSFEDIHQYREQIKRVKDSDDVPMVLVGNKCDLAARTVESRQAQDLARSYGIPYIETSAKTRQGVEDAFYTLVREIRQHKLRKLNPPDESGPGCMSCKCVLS

Turning to `CCCOC[C@H]1C(=O)N[C@@H]([C@@H](C)CC)C(=O)N(C)CC(=O)N(C)[C@H]2C/C=C\CCN(C2=O)[C@@H](Cc2ccc(C(F)(F)F)cc2)C(=O)N(C)CC(=O)N[C@@H](CCc2ccc(C(F)(F)F)c(OC)c2)C(=O)N2C[C@H](OCC)C[C@H]2C(=O)NC2(CC(C)(C)C2)C(=O)N(C)[C@@H](C2CCCC2)C(=O)N(C)[C@H](C(=O)N(C)C)CC(=O)N1C` [PP1657], the “NRAS /KRAS” value in test [1] is “A (a compound having 10 or more and less than 20 is denoted as A)”. Besides, the “HRAS /KRAS” value at HRAS wild-type protein was “B (a compound having 3 or more and less than 10 is denoted as B)”. The compound also came in with a 50% inhibitory concentration (IC50) in test [2] of 2 nM.
For the compound `CC[C@H](C)[C@@H]1NC(=O)[C@H](CC(F)F)N(C)C(=O)C[C@@H](C(=O)N(C)C)N(C)C(=O)[C@H](C2CCCC2)N(C)C(=O)C2(CC(C)(C)C2)NC(=O)[C@@H]2C[C@H](C)CN2C(=O)[C@H](CCc2cc(F)c(C(F)(F)F)c(F)c2)NC(=O)CN(C)C(=O)[C@H](Cc2ccc(C(F)(F)F)cc2)N2CC/C=C\C[C@@H](C2=O)N(C)C(=O)CN(C)C1=O` [PP1658], the “NRAS /KRAS” value in test [1] is “A (a compound having 10 or more and less than 20 is denoted as A)”. On HRAS wild-type protein, the “HRAS /KRAS” value is “A (a compound having 10 or more and less than 20 is denoted as A)”. The 50% inhibitory concentration (IC50) in test [2] came out at 3.8 nM.
For the compound `CCCC[C@H]1C(=O)N[C@@H]([C@@H](C)CC)C(=O)N(C)CC(=O)N(C)[C@H]2C/C=C\CCN(C2=O)[C@@H](Cc2ccc(C(F)(F)F)cc2)C(=O)N(C)CC(=O)N[C@@H](CCc2cc(F)c(C(F)(F)F)c(F)c2)C(=O)N2C[C@@H](C)C[C@H]2C(=O)NC2(CC(C)(C)C2)C(=O)N(C)[C@@H](C2CCCC2)C(=O)N(C)[C@H](C(=O)N(C)C)CC(=O)N1C` [PP1661], the “NRAS /KRAS” value in test [1] is “A (a compound having 10 or more and less than 20 is denoted as A)”. Further, the “HRAS /KRAS” value at HRAS wild-type protein is “A (a compound having 10 or more and less than 20 is denoted as A)”. In addition, in test [2], the half-inhibitory concentration (IC50) turned out to be 5.7 nM.
Consider `CC[C@H](C)[C@@H]1NC(=O)[C@H](CC(C)C)N(C)C(=O)C[C@@H](C(=O)N(C)C)N(C)C(=O)[C@H](C2CCCC2)N(C)C(=O)C2(CC(C)(C)C2)NC(=O)[C@@H]2C[C@H](C)CN2C(=O)[C@H](CCc2cc(F)c(C(F)(F)F)c(F)c2)NC(=O)CN(C)C(=O)[C@H](Cc2ccc(C(F)(F)F)cc2)N2CC/C=C\C[C@@H](C2=O)N(C)C(=O)CN(C)C1=O` [PP1662], for which the “NRAS /KRAS” value in test [1] is “A (a compound having 10 or more and less than 20 is denoted as A)”. For the same compound, the “HRAS /KRAS” value at HRAS wild-type protein is “B (a compound having 3 or more and less than 10 is denoted as B)”. The compound also displayed a concentration for half-maximal inhibition (IC50) in test [2] of 6.4 nM.
`CCCN(C)C(=O)[C@@H]1CC(=O)N(C)[C@@H](C)C(=O)N[C@@H]([C@@H](C)CC)C(=O)N(C)CC(=O)N(C)[C@H]2C/C=C\CCN(C2=O)[C@@H](Cc2ccc(C(F)(F)F)cc2)C(=O)N(C)CC(=O)N[C@@H](CCc2cc(F)c(C(F)(F)F)c(F)c2)C(=O)N2C[C@H](F)C[C@H]2C(=O)NC2(CC(C)(C)C2)C(=O)N(C)[C@@H](C2CCCC2)C(=O)N1C` [PP1663]: the “NRAS /KRAS” value in test [1] is given as “AA (a compound having 20 or more is denoted as AA)”. For the same compound, the “HRAS /KRAS” value at HRAS wild-type protein was “A (a compound having 10 or more and less than 20 is denoted as A)”. In test [2], this compound yielded an IC50 of 3.6 nM.
As for `CCCN(C)C(=O)[C@@H]1CC(=O)N(C)[C@@H](CC2CC2)C(=O)N[C@@H]([C@@H](C)CC)C(=O)N(C)CC(=O)N(C)[C@H]2C/C=C\CCN(C2=O)[C@@H](Cc2ccc(C(F)(F)F)cc2)C(=O)N(C)CC(=O)N[C@@H](CCc2cc(F)c(C(F)(F)F)c(F)c2)C(=O)N2C[C@H](F)C[C@H]2C(=O)NC2(CC(C)(C)C2)C(=O)N(C)[C@@H](C2CCCC2)C(=O)N1C` [PP1665], the “NRAS /KRAS” value in test [1] is given as “AA (a compound having 20 or more is denoted as AA)”. The “HRAS /KRAS” value at HRAS wild-type protein was “A (a compound having 10 or more and less than 20 is denoted as A)”. The compound also registered a half-maximal inhibitory concentration (IC50) in test [2] of 3.1 nM.
Take `CCCN(C)C(=O)[C@@H]1CC(=O)N(C)[C@@H](C)C(=O)N[C@@H]([C@@H](C)CC)C(=O)N(C)CC(=O)N(C)[C@H]2C/C=C\CCN(C2=O)[C@@H](Cc2ccc(C(F)(F)F)cc2)C(=O)N(C)CC(=O)N[C@@H](CCc2cc(F)c(C(F)(F)F)c(F)c2)C(=O)N2C[C@H](OCC)C[C@H]2C(=O)NC2(CCC2)C(=O)N(C)[C@@H](C2CCCC2)C(=O)N1C` [PP1666]: the “NRAS /KRAS” value in test [1] was “A (a compound having 10 or more and less than 20 is denoted as A)”. Further, the “HRAS /KRAS” value at HRAS wild-type protein was “A (a compound having 10 or more and less than 20 is denoted as A)”. Moreover, the half-maximal inhibitory concentration (IC50) in test [2] was determined as 8.1 nM.
On to `CCCOC[C@H]1C(=O)N[C@@H]([C@@H](C)CC)C(=O)N(C)CC(=O)N(C)[C@H]2C/C=C\CCN(C2=O)[C@@H](Cc2ccc(C(F)(F)F)cc2)C(=O)N(C)CC(=O)N[C@@H](CCc2cc(F)c(C(F)(F)F)c(F)c2)C(=O)N2C[C@H](OCC)C[C@H]2C(=O)NC2(CCC2)C(=O)N(C)[C@@H](C2CCCC2)C(=O)N(C)[C@H](C(=O)N(C)CCC)CC(=O)N1C` [PP1668], for which, in test [1], the “NRAS /KRAS” value is “A (a compound having 10 or more and less than 20 is denoted as A)”. Also, at HRAS wild-type protein, the “HRAS /KRAS” value was “A (a compound having 10 or more and less than 20 is denoted as A)”. The same compound had a concentration for half-maximal inhibition (IC50) in test [2] of 5.3 nM.
Consider `CCCN(C)C(=O)[C@@H]1CC(=O)N(C)[C@@H](CC)C(=O)N[C@@H]([C@@H](C)CC)C(=O)N(C)CC(=O)N(C)[C@H]2C/C=C\CCN(C2=O)[C@@H](Cc2ccc(C(F)(F)F)cc2)C(=O)N(C)CC(=O)N[C@@H](CCc2cc(F)c(C(F)(F)F)c(F)c2)C(=O)N2C[C@H](OCC)C[C@H]2C(=O)NC2(CC(C)(C)C2)C(=O)N(C)[C@@H](C2CCCC2)C(=O)N1C` [PP1670], for which the “NRAS /KRAS” value in test [1] is “A (a compound having 10 or more and less than 20 is denoted as A)”. Moreover, the “HRAS /KRAS” value on HRAS wild-type protein was “A (a compound having 10 or more and less than 20 is denoted as A)”. Further, the midpoint of inhibition in test [2], the IC50, lay at 6.7 nM.
`CCO[C@@H]1C[C@H]2C(=O)NC3(CC(C)(C)C3)C(=O)N(C)[C@@H](C3CCCC3)C(=O)N(C)[C@H](C(=O)N(C)CC)CC(=O)N(C)[C@@H](COC)C(=O)N[C@@H]([C@@H](C)CC)C(=O)N(C)CC(=O)N(C)[C@H]3C/C=C\CCN(C3=O)[C@@H](Cc3ccc(C(F)(F)F)cc3)C(=O)N(C)CC(=O)N[C@@H](CCc3cc(F)c(C(F)(F)F)c(F)c3)C(=O)N2C1` [PP1671]: in test [1], the “NRAS /KRAS” value was “A (a compound having 10 or more and less than 20 is denoted as A)”. For the same compound, on HRAS wild-type protein, the “HRAS /KRAS” value was “A (a compound having 10 or more and less than 20 is denoted as A)”. In test [2], this compound yielded an IC50 of 3 nM.
As to `CCCN(C)C(=O)[C@@H]1CC(=O)N(C)[C@@H](COC)C(=O)N[C@@H]([C@@H](C)CC)C(=O)N(C)CC(=O)N(C)[C@H]2C/C=C\CCN(C2=O)[C@@H](Cc2ccc(C(F)(F)F)cc2)C(=O)N(C)CC(=O)N[C@@H](CCc2cc(F)c(C(F)(F)F)c(F)c2)C(=O)N2C[C@H](OCC)C[C@H]2C(=O)NC2(CC(C)(C)C2)C(=O)N(C)[C@@H](C2CCCC2)C(=O)N1C` [PP1672], in test [1], the “NRAS /KRAS” value was “A (a compound having 10 or more and less than 20 is denoted as A)”. Moreover, the “HRAS /KRAS” value at HRAS wild-type protein was “A (a compound having 10 or more and less than 20 is denoted as A)”. In addition, in test [2], the IC50 was 6 nM.
As for `CCCOC[C@H]1C(=O)N[C@@H]([C@@H](C)CC)C(=O)N(C)CC(=O)N(C)[C@H]2C/C=C\CCN(C2=O)[C@@H](Cc2ccc(C(F)(F)F)cc2)C(=O)N(C)CC(=O)N[C@@H](CCc2cc(F)c(C(F)(F)F)c(F)c2)C(=O)N2C[C@H](OCC)C[C@H]2C(=O)NC2(CC(C)(C)C2)C(=O)N(C)[C@@H](C2CCCC2)C(=O)N(C)[C@H](C(=O)N(C)CCC)CC(=O)N1C` [PP1673], in test [1], the “NRAS /KRAS” value is “A (a compound having 10 or more and less than 20 is denoted as A)”. Moreover, the “HRAS /KRAS” value on HRAS wild-type protein is “A (a compound having 10 or more and less than 20 is denoted as A)”. In addition, it took 6 nM to reach half-maximal inhibition in test [2] (IC50).
With `CCO[C@@H]1C[C@H]2C(=O)NC3(CC(C)(C)C3)C(=O)N(C)[C@@H](C3CCCC3)C(=O)N(C)[C@H](C(=O)N(C)C)CC(=O)N(C)[C@@H](C)C(=O)N[C@@H]([C@@H](C)CC)C(=O)N(C)CC(=O)N(C)[C@H]3C/C=C\CCN(C3=O)[C@@H](Cc3ccc(C(F)(F)F)cc3)C(=O)N(C)CC(=O)N[C@@H](CCc3ccc(C(F)(F)F)c(OC)c3)C(=O)N2C1` [PP1674], in test [1], the “NRAS /KRAS” value is “A (a compound having 10 or more and less than 20 is denoted as A)”. Also, the “HRAS /KRAS” value at HRAS wild-type protein was “A (a compound having 10 or more and less than 20 is denoted as A)”. In test [2], this compound yielded an IC50 of 5.1 nM.
Regarding `CCO[C@@H]1C[C@H]2C(=O)NC3(CC(C)(C)C3)C(=O)N(C)[C@@H](C3CCCC3)C(=O)N(C)[C@H](C(=O)N(C)C)CC(=O)N(C)[C@@H](CC(F)(F)F)C(=O)N[C@@H]([C@@H](C)CC)C(=O)N(C)CC(=O)N(C)[C@H]3C/C=C\CCN(C3=O)[C@@H](Cc3ccc(C(F)(F)F)cc3)C(=O)N(C)CC(=O)N[C@@H](CCc3ccc(C(F)(F)F)c(OC)c3)C(=O)N2C1` [PP1675], the “NRAS /KRAS” value in test [1] was “A (a compound having 10 or more and less than 20 is denoted as A)”. Moreover, on HRAS wild-type protein, the “HRAS /KRAS” value is “B (a compound having 3 or more and less than 10 is denoted as B)”. This compound also registered an IC50 in test [2] of 3 nM.
For the compound `CCO[C@@H]1C[C@H]2C(=O)NC3(CC(C)(C)C3)C(=O)N(C)[C@@H](C3CCCC3)C(=O)N(C)[C@H](C(=O)N(C)CC)CC(=O)N(C)[C@@H](COC)C(=O)N[C@@H]([C@@H](C)CC)C(=O)N(C)CC(=O)N(C)[C@H]3C/C=C\CCN(C3=O)[C@@H](Cc3ccc(C(F)(F)F)cc3)C(=O)N(C)CC(=O)N[C@@H](CCc3ccc(C(F)(F)F)c(OC)c3)C(=O)N2C1` [PP1679], the “NRAS /KRAS” value in test [1] was “A (a compound having 10 or more and less than 20 is denoted as A)”. Further, at HRAS wild-type protein, the “HRAS /KRAS” value was “A (a compound having 10 or more and less than 20 is denoted as A)”. In test [2], this compound showed an IC50 of 3.1 nM.

The values are drawn from patent EP4603105A1, “PHARMACEUTICAL COMPOSITION CONTAINING CYCLIC COMPOUND HAVING SELECTIVE KRAS INHIBITORY EFFECT AGAINST HRAS AND NRAS” (CHUGAI SEIYAKU KABUSHIKI KAISHA, priority 2022, dated 2024).
